The source of these data is paper PMC8758714, “Effective prediction of biosynthetic pathway genes involved in bioactive polyphyllins in Paris polyphylla” (Communications Biology, 2022).

The experiment has as its system T1, PpUGT73CR1.
T1 construct: gene UGT73CR1; tag removal not mentioned
Nature of the experiment: HPLC quantification of product. It counts as biochemical, Paris polyphylla var. yunnanensis. The following applies: 5 mM UDP-glucose, 50 mM Tris-HCl pH 8.0, 37 °C, 30 min, 20-400 µM acceptor. The source says: HPLC quantification of product on PpUGT73CR1

As usually defined, the Km is the substrate concentration at which the rate is half of its maximum. Turning to `C[C@@H]1CC[C@@]2(OC1)O[C@H]1C[C@H]3[C@@H]4CC=C5C[C@@H](O)CC[C@]5(C)[C@H]4CC[C@]3(C)[C@@]1(O)[C@@H]2C` [pennogenin], where the note is “product floribundasaponin A”, the Km was determined as 73.4 ± 8.16 µM.
As to `C[C@@H]1CC[C@@]2(OC1)O[C@H]1C[C@H]3[C@@H]4CC=C5C[C@@H](O)CC[C@]5(C)[C@H]4CC[C@]3(C)[C@H]1[C@@H]2C` [diosgenin], for the setting “product trillin”, the Km was 53.7 ± 9.37 µM.
